Patent US8722720B2, “Imidazole derivatives as IDO inhibitors” (NewLink Genetics Corporation, priority 2010, dated 2014)
pIC50: −log10 of the molar value. Where a name gives a salt, the structure may show the parent alone.

Biological target: T1, purified human IDO protein (Homo sapiens, UniProt P14902)
T1 construct: 2 extra amino acids (linker from the BglII cloning site of pQE70); made in house; host or cells: E. coli M15(pREP4) with plasmid pQE70-hIDO
Experiment: Enzymatic IDO assay (kynurenine production, absorbance at 480 nm)
Assay type: biochemical
Settings: recombinant human IDO; values reported in ranges; read-out: hIDO IC50
Outline: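 Inhibitors (final 1 mM to 5 nM, in 50 mM potassium phosphate) preincubated with enzyme 5 min at 25 °C, then 200 μM L-tryptophan added, 15 min at 37 °C. TCA stop and 60 °C hydrolysis to kynurenine, detected with p-dimethylaminobenzaldehyde at 480 nm. IC50 by nonlinear regression.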

T1 sequence (P14902 whole entry P110S/E119G): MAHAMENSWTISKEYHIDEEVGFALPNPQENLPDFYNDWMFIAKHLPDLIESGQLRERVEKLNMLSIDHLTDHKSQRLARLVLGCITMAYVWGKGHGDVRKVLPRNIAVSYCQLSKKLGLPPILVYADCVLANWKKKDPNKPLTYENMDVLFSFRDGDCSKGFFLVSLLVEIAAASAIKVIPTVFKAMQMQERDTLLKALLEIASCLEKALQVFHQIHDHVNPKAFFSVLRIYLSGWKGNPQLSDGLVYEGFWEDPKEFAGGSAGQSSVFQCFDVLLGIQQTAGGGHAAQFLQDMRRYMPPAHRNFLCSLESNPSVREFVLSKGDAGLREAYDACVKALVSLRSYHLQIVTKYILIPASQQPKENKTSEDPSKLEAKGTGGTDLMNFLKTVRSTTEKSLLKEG

**Q.** c1ccc(-c2c[nH]cn2)c(OCc2ccc3occc3c2)c1 [compound 1028, 4-(2-(benzofuran-5-ylmethoxy)phenyl)-1H-imidazole] was tested. Which pIC50 did it give?
**A.** The pIC50 was 4.00 to 5.00.

**Q.** With NC(CCc1ccccc1-c1c[nH]cn1)C(=O)O (stereo not shown) [compound 1050, lithium 4-(2-(1H-imidazol-4-yl)phenyl)-2-amino-butanoate] as the compound, how does the pIC50 read?
**A.** Its pIC50 is under 4.00.

**Q.** With CC(=O)NC(C(=O)Nc1ccc(CCOc2ccccc2-c2c[nH]cn2)c(Cl)c1)C1CCOCC1 (stereo not shown) [compound 1337, N-(4-(2-(2-(1H-imidazol-4-yl)phenoxy)ethyl)-3-chlorophenyl)-2-acetamido-2-(tetrahydro-2H-pyran-4-yl)acetamide] as the compound, how does the pIC50 read?
**A.** Its pIC50 is over 6.00.

**Q.** How did the pIC50 turn out when C=CCn1cncc1-c1ccccc1 [compound 1131, 1-allyl-5-phenyl-1H-imidazole] was run?
**A.** Its pIC50 is under 4.00.

**Q.** CC(Oc1ccccc1-c1c[nH]cn1)c1ccccc1 (stereo not shown) [compound 1045, 4-(2-(1-phenylethoxy)phenyl)-1H-imidazole] was tested. Which pIC50 did it give?
**A.** The pIC50 was 4.00 to 5.00.

**Q.** With Clc1ccc(OCc2ccccc2)c(-c2cncn2C2CCCCC2)c1 [compound 1060, 5-(2-(benzyloxy)-5-chlorophenyl)-1-cyclo-hexyl-1H-imidazole] as the compound, how does the pIC50 read?
**A.** The pIC50 was under 4.00.

**Q.** Fc1ccc(-c2cnc[nH]2)cc1Cl [compound 1037, 5-(3-chloro-4-fluorophenyl)-1H-imidazole] was tested. Which pIC50 did it give?
**A.** The pIC50 was 4.00 to 5.00.

**Q.** c1ccc(-c2c[nH]cn2)c(OCCN2CCOCC2)c1 [compound 1236, 4-(2-(2-(1H-imidazol-4-yl)phenoxy)ethyl) morpholine] was tested. Which pIC50 did it give?
**A.** The pIC50 was under 4.00.

**Q.** c1ccc(-c2c[nH]cn2)c(OCCc2ccc(-c3ccsc3)cc2)c1 [compound 1201, 4-(2-(4-(thiophen-3-yl)phenethoxy)phenyl)-1H-imidazole] was tested. Which pIC50 did it give?
**A.** The pIC50 was 4.00 to 5.00.

**Q.** With Oc1ccc(OCc2ccccc2)cc1-c1cnc[nH]1 [compound 1105, 4-(benzyloxy)-2-(1H-imidazol-5-yl)phenol] as the compound, how does the pIC50 read?
**A.** Its pIC50 is 4.00 to 5.00.

**Q.** How did the pIC50 turn out when c1ccc(-c2c[nH]cn2)c(OCCc2ccsc2)c1 [compound 1203, 4-(2-(2-(thiophen-3-yl)ethoxy)phenyl)-1H-imidazole] was run?
**A.** Its pIC50 is 4.00 to 5.00.

**Q.** O=C(Nc1ccccc1)Nc1ccc(CCOc2ccccc2-c2c[nH]cn2)cn1 [compound 1224, 1-(5-(2-(2-(1H-imidazol-4-yl)phenoxy)ethyl)pyridin-2-yl)-3-phenylurea] was tested. Which pIC50 did it give?
**A.** Its pIC50 is 5.00 to 6.00.

**Q.** How did the pIC50 turn out when CC(CC1CCCCC1)Oc1ccccc1-c1c[nH]cn1 (stereo not shown) [compound 1044, 4-(2-(1-cyclohexylpropan-2-yloxy)phenyl)-1H-imidazole] was run?
**A.** The pIC50 was 4.00 to 5.00.

**Q.** How did the pIC50 turn out when CC(=O)NCc1cccc(COc2ccccc2-c2c[nH]cn2)c1 [compound 958, N-(3-((2-(1H-imidazol-4-yl)phenoxy)methyl)benzyl)acetamide] was run?
**A.** Its pIC50 is 4.00 to 5.00.

**Q.** How did the pIC50 turn out when O=C(Cc1cnccn1)Nc1ccc(CCOc2ccccc2-c2c[nH]cn2)cc1 [compound 1153, N-(4-(2-(2-(1H-imidazol-4-yl)phenoxy)ethyl)phenyl)-2-(pyrazin-2-yl)acetamide] was run?
**A.** The pIC50 was 4.00 to 5.00.

**Q.** With O=C(Cc1cncnc1)Nc1ccc(CCOc2ccccc2-c2c[nH]cn2)c(Cl)c1 [compound 1366, N-(4-(2-(2-(1H-imidazol-4-yl)phenoxy)ethyl)-3-chlorophenyl)-2-(pyrimidin-5-yl)acetamide] as the compound, how does the pIC50 read?
**A.** The pIC50 was over 6.00.

**Q.** O=C(Nc1ccccc1)Nc1ccc(CCOc2ccccc2-c2cnc[nH]2)cc1 [compound 1152, 1-(4-(2-(2-(1H-imidazol-4-yl)phenoxy)ethyl)phenyl)-3-phenylurea] was tested. Which pIC50 did it give?
**A.** Its pIC50 is over 6.00.

**Q.** How did the pIC50 turn out when COC(=O)[C@@H](Cc1cn(C)c2ccccc12)NC(=O)Oc1ccc(Cl)cc1-c1c[nH]cn1 [compound 1264, (R)-methyl 2-(((4-chloro-2-(1H-imidazol-4-yl)phenoxy)carbonyl)amino)-3-(1-methyl-1H-indol-3-yl) propanoate] was run?
**A.** The pIC50 was 5.00 to 6.00.

**Q.** Clc1cccc(-c2cnc[nH]2)c1OCCC1CCCCC1 [compound 1177, 5-(3-chloro-2-(2-cyclohexylethoxy)phenyl)-1H-imidazole] was tested. Which pIC50 did it give?
**A.** Its pIC50 is 5.00 to 6.00.

**Q.** With CC(C)(C)CCOc1ccc(O)cc1-c1c[nH]cn1 [compound 1110, 4-(3,3-dimethylbutoxy)-3-(1H-imidazol-4-yl) phenol] as the compound, how does the pIC50 read?
**A.** The pIC50 was 4.00 to 5.00.

**Q.** How did the pIC50 turn out when CC(COc1ccccc1-c1c[nH]cn1)C1CCCCC1 (stereo not shown) [compound 1052, 4-(2-(2-cyclohexylpropoxy)phenyl)-1H-imidazole hydrochloride] was run?
**A.** Its pIC50 is 5.00 to 6.00.

**Q.** Oc1ccc(Cl)cc1-c1cnc2cnccn12 [compound 1038, 4-chloro-2-(imidazo[1,2-a]pyrazin-3-yl)phenol] was tested. Which pIC50 did it give?
**A.** The pIC50 was under 4.00.

**Q.** How did the pIC50 turn out when CC(C)(C)CC(=O)N1CCC(CCOc2ccccc2-c2c[nH]cn2)CC1 [compound 1143, 1-(4-(2-(2-(1H-imidazol-4-yl)phenoxy)ethyl)piperidin-1-yl)-3,3-dimethylbutan-1-one] was run?
**A.** The pIC50 was 4.00 to 5.00.

**Q.** c1nc(-c2ccc3[nH]ccc3c2)c[nH]1 [compound 949, 5-(1H-imidazol-4-yl)-1H-indole] was tested. Which pIC50 did it give?
**A.** Its pIC50 is under 4.00.

**Q.** O=C(Cc1cccs1)Nc1ccc(CCOc2ccccc2-c2c[nH]cn2)cc1 [compound 1154, N-(4-(2-(2-(1H-imidazol-4-yl)phenoxy)ethyl)phenyl)-2-(thiophen-2-yl)acetamide] was tested. Which pIC50 did it give?
**A.** The pIC50 was 5.00 to 6.00.

**Q.** How did the pIC50 turn out when CC(C)N(C(=O)Oc1ccc(Cl)cc1-c1c[nH]cn1)C(C)C [compound 1085, 4-chloro-2-(1H-imidazol-4-yl)phenyl diisopropylcarbamate] was run?
**A.** The pIC50 was under 4.00.

**Q.** O=C(Cc1ccccc1)Nc1ccc(CCOc2ccccc2-c2c[nH]cn2)cn1 [compound 1228, N-(5-(2-(2-(1H-imidazol-4-yl)phenoxy)ethyl)pyridin-2-yl)-2-phenylacetamide] was tested. Which pIC50 did it give?
**A.** Its pIC50 is 5.00 to 6.00.

**Q.** How did the pIC50 turn out when O=C(Nc1ccccc1)Nc1ccc(CCOc2ccccc2-c2c[nH]cn2)c(Cl)c1 [compound 1347, 1-(4-(2-(2-(1H-imidazol-4-yl)phenoxy)ethyl)-3-chlorophenyl)-3-phenylurea] was run?
**A.** The pIC50 was over 6.00.

**Q.** How did the pIC50 turn out when O=C(Nc1ccc(CCOc2ccccc2-c2c[nH]cn2)cc1)Nc1ccccc1[N+](=O)[O-] [compound 1192, 1-(4-(2-(2-(1H-imidazol-4-yl)phenoxy)ethyl)phenyl)-3-(2-nitrophenyl)urea] was run?
**A.** Its pIC50 is over 6.00.

**Q.** How did the pIC50 turn out when O=C(c1cccs1)N1CCC(CCOc2ccccc2-c2c[nH]cn2)CC1 [compound 1165, (4-(2-(2-(1H-imidazol-4-yl)phenoxy)ethyl)piperidin-1-yl)(thiophen-2-yl)methanone] was run?
**A.** Its pIC50 is 5.00 to 6.00.

**Q.** With Nc1nc(CC(=O)Nc2ccc(CCOc3ccccc3-c3c[nH]cn3)cc2)cs1 [compound 1257, N-(4-(2-(2-(1H-imidazol-4-yl)phenoxy)ethyl)phenyl)-2-(2-aminothiazol-4-yl)acetamide] as the compound, how does the pIC50 read?
**A.** Its pIC50 is 5.00 to 6.00.

**Q.** How did the pIC50 turn out when O=C(Nc1ccc(CCOc2ccccc2-c2c[nH]cn2)c(Cl)c1)NC1CCOCC1 [compound 1265, 1-(4-(2-(2-(1H-imidazol-4-yl)phenoxy)ethyl)-3-chlorophenyl)-3-(tetrahydro-2H-pyran-4-yl)urea] was run?
**A.** Its pIC50 is over 6.00.

**Q.** How did the pIC50 turn out when O=C(CC1CCOCC1)Nc1ccc(CCOc2ccccc2-c2c[nH]cn2)cc1 [compound 1211, N-(4-(2-(2-(1H-imidazol-4-yl)phenoxy)ethyl)phenyl)-2-(tetrahydro-2H-pyran-4-yl)acetamide] was run?
**A.** The pIC50 was 5.00 to 6.00.

**Q.** With O=C(Cc1cscn1)Nc1ccc(CCOc2ccccc2-c2c[nH]cn2)cc1 [compound 1226, N-(4-(2-(2-(1H-imidazol-4-yl)phenoxy)ethyl)phenyl)-2-(thiazol-4-yl)acetamide] as the compound, how does the pIC50 read?
**A.** Its pIC50 is 5.00 to 6.00.

**Q.** How did the pIC50 turn out when Oc1ccc(Cl)c(OCCC2CCCCC2)c1-c1cnc[nH]1 [compound 1172, 4-chloro-3-(2-cyclohexylethoxy)-2-(1H-imidazol-5-yl)phenol] was run?
**A.** Its pIC50 is 5.00 to 6.00.

**Q.** COC(=O)c1ccc(C(=O)Nc2ccc(CCOc3ccccc3-c3c[nH]cn3)cc2)cc1 [compound 1271, methyl 4-((4-(2-(2-(1H-imidazol-4-yl)phenoxy)ethyl)phenyl)carbamoyl)benzoate] was tested. Which pIC50 did it give?
**A.** Its pIC50 is 5.00 to 6.00.

**Q.** c1ccc2c(-c3c[nH]cn3)cncc2c1 [compound 1004, 4-(1H-imidazol-4-yl)isoquinoline] was tested. Which pIC50 did it give?
**A.** Its pIC50 is under 4.00.

**Q.** NC1CCCCC1NC(=O)Nc1ccc(CCOc2ccccc2-c2c[nH]cn2)cc1 (stereo not shown) [compound 1216, 1-(4-(2-(2-(1H-imidazol-4-yl)phenoxy)ethyl)phenyl)-3-(2-aminocyclohexyl)urea] was tested. Which pIC50 did it give?
**A.** Its pIC50 is 5.00 to 6.00.

**Q.** How did the pIC50 turn out when O=C(O)c1ccccc1C(=O)Nc1ccc(CCOc2ccccc2-c2c[nH]cn2)cc1 [compound 1285, 2-((4-(2-(2-(1H-imidazol-4-yl)phenoxy)ethyl)phenyl)carbamoyl)benzoic acid] was run?
**A.** Its pIC50 is 5.00 to 6.00.

**Q.** How did the pIC50 turn out when O=C(CN1CCOCC1)Nc1ccc(CCOc2ccccc2-c2c[nH]cn2)cc1 [compound 1214, N-(4-(2-(2-(1H-imidazol-4-yl)phenoxy)ethyl)phenyl)-2-morpholinoacetamide] was run?
**A.** Its pIC50 is 5.00 to 6.00.

**Q.** How did the pIC50 turn out when c1cc(-c2c[nH]cn2)c2[nH]ccc2c1 [compound 948, 7-(1H-imidazol-4-yl)-1H-indole] was run?
**A.** Its pIC50 is 4.00 to 5.00.

**Q.** O=C(COc1ccccc1-c1c[nH]cn1)c1ccc2ccsc2c1 [compound 1018, 2-(2-(1H-imidazol-4-yl)phenoxy)-1-(benzo[b]thiophen-6-yl)ethanone] was tested. Which pIC50 did it give?
**A.** Its pIC50 is 5.00 to 6.00.

**Q.** Oc1c(-c2cnc[nH]2)ccc(F)c1Cl [compound 1129, 2-chloro-3-fluoro-6-(1H-imidazol-5-yl)phenol] was tested. Which pIC50 did it give?
**A.** Its pIC50 is 4.00 to 5.00.

**Q.** c1cc(-c2c[nH]cn2)c2nsnc2c1 [compound 962, 4-(1H-imidazol-4-yl)benzo[c][1,2,5]thiadiazole] was tested. Which pIC50 did it give?
**A.** Its pIC50 is 4.00 to 5.00.

**Q.** How did the pIC50 turn out when CC(C)(C)CCOc1ccc(O)c(-c2cnc[nH]2)c1 [compound 1107, 4-(3,3-dimethylbutoxy)-2-(1H-imidazol-5-yl) phenol] was run?
**A.** The pIC50 was 4.00 to 5.00.

**Q.** With OC(COc1ccccc1-c1c[nH]cn1)c1cccc(Br)c1 (stereo not shown) [compound 954, 2-(2-(1H-imidazol-4-yl)phenoxy)-1-(3-bromo-phenyl)ethanol] as the compound, how does the pIC50 read?
**A.** The pIC50 was 4.00 to 5.00.

**Q.** Oc1ccc(-c2ccccc2)cc1-c1c[nH]cn1 [compound 1005, 3-(1H-imidazol-4-yl)biphenyl-4-ol] was tested. Which pIC50 did it give?
**A.** The pIC50 was 4.00 to 5.00.

**Q.** How did the pIC50 turn out when Oc1cc(F)ccc1-c1cnc[nH]1 [compound 1120, 5-fluoro-2-(1H-imidazol-5-yl)phenol] was run?
**A.** Its pIC50 is 4.00 to 5.00.

**Q.** With CC1Cn2cncc2-c2ccccc21 (stereo not shown) [compound 1137, 6-methyl-5,6-dihydroimidazo[5,1-a]isoquino-line] as the compound, how does the pIC50 read?
**A.** The pIC50 was under 4.00.
